Measured values reported in ChEMBL document CHEMBL4665709, “Rational Avoidance of Protease Cleavage Sites and Symmetrical End-Tagging Significantly Enhances the Stability and Therapeutic Potential of Antimicrobial Peptides” (J Med Chem, 2020).
≈ marks a conversion by molar mass, not a printed value. Calls of active or inactive are those of the source. The rule behind the calls is not given here. Where a SMILES comes first, the peptide text is derived from it.

How the values were obtained:
[1] = Therapeutic index, ratio of MHC for human RBC to geometric mean of peptide MIC for Streptococcus agalactiae H92; assay type: toxicity; details: human red blood cells (RBC), read-out: TI
[2] = Therapeutic index, ratio of MHC for human RBC to geometric mean of peptide MIC for methicillin-resistant Staphylococcus aureus 43300; assay type: toxicity; details: human red blood cells (RBC), read-out: TI
[3] = Therapeutic index, ratio of MHC for human RBC to geometric mean of peptide MIC for Staphylococcus aureus ATCC 29213; assay type: toxicity; details: human red blood cells (RBC), read-out: TI
[4] = Therapeutic index, ratio of MHC for human RBC to geometric mean of peptide MIC for Salmonella pullorum 7913; assay type: toxicity; details: human red blood cells (RBC), read-out: TI
[5] = Therapeutic index, ratio of MHC for human RBC to geometric mean of peptide MIC for Salmonella typhimurium 7731; assay type: toxicity; details: human red blood cells (RBC), read-out: TI
[6] = Therapeutic index, ratio of MHC for human RBC to geometric mean of peptide MIC for Escherichia coli UB1005; assay type: toxicity; details: human red blood cells (RBC), read-out: TI
[7] = Therapeutic index, ratio of MHC for human RBC to geometric mean of peptide MIC for Escherichia coli ATCC 25922; assay type: toxicity; details: human red blood cells (RBC), read-out: TI
Cell membrane [8] = experiment: Disruption of membrane integrity in Staphylococcus aureus ATCC 29213 assessed as induction of membrane rupture at 0.5 to 2 times after 1 hr by PI-staining based fluorescence microscopy; assay type: subcellular
Escherichia coli [9] = experiment: Antibacterial activity against Escherichia coli ATCC 25922 infected in C57BL/6 mouse assessed as reduction in lesion in spleen at 10 mg/kg, ip measured after 11 hrs by hematoxylin and eosin staining based assay; assay type: functional, organism-based
Salmonella typhimurium = experiment: Antibacterial activity against Salmonella typhimurium 7731 after 18 to 24 hrs by CLSI-based broth microdilution method; assay type: functional, Salmonella enterica subsp. enterica serovar Typhimurium; details: Salmonella enterica, time hrs 18-24
Staphylococcus aureus [10] = experiment: Antibacterial activity against methicillin-resistant Staphylococcus aureus 43300 after 18 to 24 hrs by CLSI-based broth microdilution method; assay type: functional; details: time hrs 18-24
Escherichia coli [11] = experiment: Antibacterial activity against Escherichia coli ATCC 25922 after 18 to 24 hrs in presence of 150 mM Na+ by CLSI-based broth microdilution method; assay type: functional; details: time hrs 18-24
[12] = Hemolytic activity in human RBC assessed as hemolysis at 1 to 128 uM relative to control; assay type: ADME, cell-based, Erythrocyte; details: human red blood cells (RBC), dose 1-128 µM, read-out: Activity
Escherichia coli [13] = experiment: Antibacterial activity against Escherichia coli ATCC 25922 after 18 to 24 hrs in presence of 8 uM Zn2+ by CLSI-based broth microdilution method; assay type: functional; details: time hrs 18-24
Escherichia coli [14] = experiment: Antibacterial activity against Escherichia coli ATCC 25922 after 18 to 24 hrs in presence of 6 uM Fe3+ by CLSI-based broth microdilution method; assay type: functional; details: time hrs 18-24
Escherichia coli [15] = experiment: Antibacterial activity against Escherichia coli ATCC 25922 after 18 to 24 hrs in presence of 100% human serum by CLSI-based broth microdilution method; assay type: functional; details: time hrs 18-24
Staphylococcus aureus [16] = experiment: Antibacterial activity against Staphylococcus aureus ATCC 29213 after 18 to 24 hrs in presence of 1 mM Mg2+ by CLSI-based broth microdilution method; assay type: functional; details: time hrs 18-24
Staphylococcus aureus [17] = experiment: Antibacterial activity against Staphylococcus aureus ATCC 29213 after 18 to 24 hrs in presence of 6 uM Fe3+ by CLSI-based broth microdilution method; assay type: functional; details: time hrs 18-24
Staphylococcus aureus [18] = experiment: Antibacterial activity against Staphylococcus aureus ATCC 29213 after 18 to 24 hrs in presence of 25% human serum by CLSI-based broth microdilution method; assay type: functional; details: time hrs 18-24
Escherichia coli [19] = experiment: Antibacterial activity against Escherichia coli ATCC 25922 measured after 18 to 24 hrs in presence of trypsin by CLSI-based broth microdilution method; assay type: functional, organism-based; details: time hrs 18-24
Escherichia coli [20] = experiment: Antibacterial activity against Escherichia coli ATCC 25922 measured after 18 to 24 hrs in presence of chymotrypsin by CLSI-based broth microdilution method; assay type: functional, organism-based; details: time hrs 18-24
Escherichia coli [21] = experiment: Antibacterial activity against Escherichia coli ATCC 25922 measured after 18 to 24 hrs in presence of proteinase K by CLSI-based broth microdilution method; assay type: functional, organism-based; details: time hrs 18-24
[22] = Toxicity in C57BL/6 mouse assessed as change in body weigh at 10 mg/kg, ip measured for 5 days; assay type: organism-based; details: in vivo, 120 h, time 5 day
[23] = Toxicity in C57BL/6 mouse assessed as change in body weigh at 20 mg/kg, ip measured for 5 days; assay type: organism-based; details: in vivo, 120 h, time 5 day
[24] = Toxicity in C57BL/6 mouse assessed as effect on creatinine level at 10 mg/kg, ip measured after 5 days; assay type: organism-based; details: in vivo, 120 h, time 5 day
[25] = Toxicity in C57BL/6 mouse assessed as effect on blood urea nitrogen level at 10 mg/kg, ip measured after 5 days; assay type: organism-based; details: in vivo, 120 h, time 5 day
Escherichia coli [26] = experiment: Antibacterial activity against Escherichia coli ATCC 25922 infected in C57BL/6 mouse assessed as reduction in bacterial load in spleen at 10 mg/kg, ip measured after 11 hrs (reference value: 6.02 log CFU/g); assay type: functional
Escherichia coli [27] = experiment: Antibacterial activity against Escherichia coli ATCC 25922 infected in C57BL/6 mouse assessed as reduction in bacterial load in kidney at 10 mg/kg, ip measured after 11 hrs (reference value: 7.59 log CFU/g); assay type: functional
Escherichia coli [28] = experiment: Antibacterial activity against Escherichia coli ATCC 25922 infected in C57BL/6 mouse assessed as reduction in bleeding in spleen at 10 mg/kg, ip measured after 11 hrs by hematoxylin and eosin staining based assay; assay type: functional, organism-based
Escherichia coli [29] = experiment: Antibacterial activity against Escherichia coli ATCC 25922 infected in C57BL/6 mouse assessed as reduction in IL-1beta level in serum at 10 mg/kg, ip measured after 11 hrs by ELISA; assay type: functional, organism-based
Escherichia coli [30] = experiment: Antibacterial activity against Escherichia coli ATCC 25922 infected in C57BL/6 mouse assessed as reduction in TNF-alpha level in serum at 10 mg/kg, ip measured after 11 hrs by ELISA; assay type: functional, organism-based
RAW264.7 = experiment: Antiinflammatory activity in mouse RAW264.7 cells assessed as inhibition of LPS-induced IL-6 production after 24 hrs by ELISA; assay type: functional, cell-based
Staphylococcus aureus [31] = experiment: Displacement of BODIPY-TR-cadaverine from Staphylococcus aureus LTA after 4 hrs by fluorescence assay
Cell membrane [32] = experiment: Induction of cytoplasmic membrane depolarization in Staphylococcus aureus ATCC 29213 at 0.5 to 2 times MIC up to 1000 secs by DiSC3-5 dye-based fluorescence assay; assay type: subcellular; details: time sec <=1000
Cell membrane [33] = experiment: Induction of membrane permeabilization in Escherichia coli ATCC 25922 after 1 hr by PI fluorescence staining-based confocal microscopy analysis
Cell membrane [34] = experiment: Induction of morpholoical changes in membrane of Staphylococcus aureus ATCC 29213 assessed as breakage in bacterial membrane at 1 times MIC after 1 hr by scanning electron microscopy; assay type: subcellular
Cell membrane [35] = experiment: Induction of morpholoical changes in membrane of Staphylococcus aureus ATCC 29213 assessed as fragmentation in bacterial membrane at 1 times MIC after 1 hr by scanning electron microscopy; assay type: subcellular
Cell membrane [36] = experiment: Induction of structural changes in membrane of Escherichia coli ATCC 25922 assessed as membrane rupture at 1 times MIC after 1 hr by transmission electron microscopy; assay type: subcellular
Cell membrane [37] = experiment: Induction of structural changes in membrane of Staphylococcus aureus ATCC 29213 assessed as cytoplasmic leakage at 1 times MIC after 1 hr by transmission electron microscopy

`CC[C@H](C)[C@H](N)C(=O)N[C@H](C(=O)N[C@H](C(=O)N[C@@H](CS)C(=O)N[C@@H](CCCNC(=N)N)C(=O)N[C@@H](CCCCN)C(=O)N1CCC[C@H]1C(=O)N[C@H](C(=O)N[C@H](C(=O)N[C@@H](CS)C(=O)N[C@@H](CCCNC(=N)N)C(=O)N[C@@H](CCCCN)C(=O)N1CCC[C@H]1C(=O)N[C@H](C(=O)N[C@H](C(=O)N[C@@H](CS)C(=O)N[C@@H](CCCNC(=N)N)C(=O)N[C@@H](CCCCN)C(=O)N1CCC[C@H]1C(=O)N[C@H](C(=O)N[C@H](C(=O)N[C@@H](CS)C(=O)N[C@@H](CCCNC(=N)N)C(=O)N[C@@H](CCCCN)C(=O)N1CCC[C@H]1C(=O)N[C@H](C(=O)N[C@H](C(=O)N[C@H](C(N)=O)[C@@H](C)CC)[C@@H](C)CC)[C@@H](C)CC)[C@@H](C)CC)[C@@H](C)CC)[C@@H](C)CC)[C@@H](C)CC)[C@@H](C)CC)[C@@H](C)CC)[C@@H](C)CC)[C@@H](C)CC` (H-IIICRKPIICRKPIICRKPIICRKPIII-NH2) gave a selectivity ratio [1] of 28.5, a selectivity ratio [2] of 28.5 and a selectivity ratio [3] of 28.5. The selectivity ratio [4] was 57, the selectivity ratio [5] was 57 and the selectivity ratio [6] was 57. The selectivity ratio [7] was 57, the Activity (Cell membrane [8]) was “Active” and the Activity (Escherichia coli [9]) was “Active”. The MIC (Salmonella typhimurium) was 2 µM (≈ 6.63 µg/mL), the MIC (Staphylococcus aureus [10]) was 4 µM (≈ 13.3 µg/mL) and the MIC (Escherichia coli [11]) was 4 µM. It also gave a hemolysis at up to 128 µM [12] of less than 5%, an MIC (Escherichia coli [13]) of 2 µM and an MIC (Escherichia coli [14]) of 2 µM. It also gave an MIC (Escherichia coli [15]) of 8 µM, an MIC (Staphylococcus aureus [16]) of 16 µM and an MIC (Staphylococcus aureus [17]) of 8 µM. The MIC (Staphylococcus aureus [18]) was 8 µM, the Activity (Escherichia coli [19]) was “Active” and the Activity (Escherichia coli [20]) was “Active”. The Activity (Escherichia coli [21]) was “Active”, the Activity [22] was “Non-Toxic” and the Activity [23] was “Non-Toxic”. For the same molecule, the Activity [24] was “Non-Toxic”, the Activity [25] was “Non-Toxic” and the Activity (Escherichia coli [26]) was 4.89 log10CFU/g. The Activity (Escherichia coli [27]) was 5.38 log10CFU/g, the Activity (Escherichia coli [28]) was “Active” and the Activity (Escherichia coli [29]) was “Active”. For the same molecule, the Activity (Escherichia coli [30]) was “Active”, the Activity (RAW264.7) was “Dose-dependent effect” and the Activity (Staphylococcus aureus [31]) was “Dose-dependent effect”. For the same molecule, the Activity (Cell membrane [32]) was “Active”, the Activity (Cell membrane [33]) was “Active” and the Activity (Cell membrane [34]) was “Active”. The Activity (Cell membrane [35]) was “Active”, the Activity (Cell membrane [36]) was “Active” and the Activity (Cell membrane [37]) was “Active”.
